Measured values as given in PubChem BioAssay (NCI).
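Step 1: Grow cells in 96-well plates. Step 2: Expose to compound for 48 hours at 5 concentrations. Step 3: Interpolate endpoints linearly; if unreached, use highest concentration. The concentration for full growth arrest is given as TGI.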

Assays:
Experiment in all cases: NCI tumour cell line growth inhibition, 48 h
786-0 renal = tested on: 786-0 renal
A498 renal = tested on: A498 renal
A549 NSCLC = tested on: A549 NSCLC
ACHN renal = tested on: ACHN renal
BT-549 breast = tested on: BT-549 breast
CAKI-1 renal = tested on: CAKI-1 renal
CCRF-CEM leukemia = tested on: CCRF-CEM leukemia
COLO 205 colon = tested on: COLO 205 colon
DU-145 prostate = tested on: DU-145 prostate
EKVX NSCLC = tested on: EKVX NSCLC
HCC-2998 colon = tested on: HCC-2998 colon
HCT-116 colon = tested on: HCT-116 colon
HCT-15 colon = tested on: HCT-15 colon
HL-60(TB) leukemia = tested on: HL-60(TB) leukemia
HOP-62 NSCLC = tested on: HOP-62 NSCLC
HS 578T breast = tested on: HS 578T breast
HT29 colon = tested on: HT29 colon
IGROV1 ovarian = tested on: IGROV1 ovarian
K-562 leukemia = tested on: K-562 leukemia
KM12 colon = tested on: KM12 colon
LOX IMVI melanoma = tested on: LOX IMVI melanoma
M14 melanoma = tested on: M14 melanoma
MALME-3M melanoma = tested on: MALME-3M melanoma
MCF7 breast = tested on: MCF7 breast
MDA-MB-231 breast = tested on: MDA-MB-231 breast
MDA-MB-435 = tested on: MDA-MB-435
MDA-N = tested on: MDA-N
MOLT-4 leukemia = tested on: MOLT-4 leukemia
NCI-H226 lung = tested on: NCI-H226 lung
NCI-H23 lung = tested on: NCI-H23 lung
NCI-H460 lung = tested on: NCI-H460 lung
NCI-H522 lung = tested on: NCI-H522 lung
NCI/ADR-RES ovarian = tested on: NCI/ADR-RES ovarian
OVCAR-3 ovarian = tested on: OVCAR-3 ovarian
OVCAR-4 ovarian = tested on: OVCAR-4 ovarian
OVCAR-5 ovarian = tested on: OVCAR-5 ovarian
OVCAR-8 ovarian = tested on: OVCAR-8 ovarian
PC-3 prostate = tested on: PC-3 prostate
RPMI-8226 leukemia = tested on: RPMI-8226 leukemia
RXF 393 renal = tested on: RXF 393 renal
SF-268 CNS = tested on: SF-268 CNS
SF-295 CNS = tested on: SF-295 CNS
SF-539 CNS = tested on: SF-539 CNS
SK-MEL-2 melanoma = tested on: SK-MEL-2 melanoma
SK-MEL-28 melanoma = tested on: SK-MEL-28 melanoma
SK-MEL-5 melanoma = tested on: SK-MEL-5 melanoma
SK-OV-3 ovarian = tested on: SK-OV-3 ovarian
SN12C renal = tested on: SN12C renal
SNB-19 CNS = tested on: SNB-19 CNS
SNB-75 CNS = tested on: SNB-75 CNS
SW-620 colon = tested on: SW-620 colon
T-47D breast = tested on: T-47D breast
TK-10 renal = tested on: TK-10 renal
U251 CNS = tested on: U251 CNS
UACC-257 melanoma = tested on: UACC-257 melanoma
UACC-62 melanoma = tested on: UACC-62 melanoma
HOP-92 NSCLC = tested on: HOP-92 NSCLC
UO-31 renal = tested on: UO-31 renal

Work on `CC(=O)OC/C=C(\C)CCC(Br)C(C)(C)Br` (stereo unspecified) yielded a TGI (786-0 renal) greater than 10 µM, a TGI (A498 renal) greater than 10 µM and a TGI (A549 NSCLC) greater than 10 µM. For the same compound, the TGI (ACHN renal) was greater than 10 µM, the TGI (BT-549 breast) was greater than 10 µM and the TGI (CAKI-1 renal) was greater than 10 µM. It also gave a TGI (CCRF-CEM leukemia) greater than 10 µM, a TGI (COLO 205 colon) greater than 10 µM and a TGI (DU-145 prostate) greater than 10 µM. For the same compound, the TGI (EKVX NSCLC) was greater than 10 µM, the TGI (HCC-2998 colon) was greater than 10 µM and the TGI (HCT-116 colon) was greater than 10 µM. The TGI (HCT-15 colon) was greater than 10 µM, the TGI (HL-60(TB) leukemia) was greater than 10 µM and the TGI (HOP-62 NSCLC) was greater than 10 µM. The TGI (HS 578T breast) was greater than 10 µM, the TGI (HT29 colon) was greater than 10 µM and the TGI (IGROV1 ovarian) was greater than 10 µM. It also gave a TGI (K-562 leukemia) greater than 10 µM, a TGI (KM12 colon) greater than 10 µM and a TGI (LOX IMVI melanoma) greater than 10 µM. For the same compound, the TGI (M14 melanoma) was greater than 10 µM, the TGI (MALME-3M melanoma) was greater than 10 µM and the TGI (MCF7 breast) was greater than 10 µM. The TGI (MDA-MB-231 breast) was greater than 10 µM, the TGI (MDA-MB-435) was greater than 10 µM and the TGI (MDA-N) was greater than 10 µM. It also gave a TGI (MOLT-4 leukemia) greater than 10 µM, a TGI (NCI-H226 lung) greater than 10 µM and a TGI (NCI-H23 lung) greater than 10 µM. The TGI (NCI-H460 lung) was greater than 10 µM, the TGI (NCI-H522 lung) was greater than 10 µM and the TGI (NCI/ADR-RES ovarian) was greater than 10 µM. For the same compound, the TGI (OVCAR-3 ovarian) was greater than 10 µM, the TGI (OVCAR-4 ovarian) was greater than 10 µM and the TGI (OVCAR-5 ovarian) was greater than 10 µM. For the same compound, the TGI (OVCAR-8 ovarian) was greater than 10 µM, the TGI (PC-3 prostate) was greater than 10 µM and the TGI (RPMI-8226 leukemia) was greater than 10 µM. The TGI (RXF 393 renal) was greater than 10 µM, the TGI (SF-268 CNS) was greater than 10 µM and the TGI (SF-295 CNS) was greater than 10 µM. For the same compound, the TGI (SF-539 CNS) was greater than 10 µM, the TGI (SK-MEL-2 melanoma) was greater than 10 µM and the TGI (SK-MEL-28 melanoma) was greater than 10 µM. It also gave a TGI (SK-MEL-5 melanoma) greater than 10 µM, a TGI (SK-OV-3 ovarian) greater than 10 µM and a TGI (SN12C renal) greater than 10 µM. The TGI (SNB-19 CNS) was greater than 10 µM, the TGI (SNB-75 CNS) was greater than 10 µM and the TGI (SW-620 colon) was greater than 10 µM. The TGI (T-47D breast) was greater than 10 µM, the TGI (TK-10 renal) was greater than 10 µM and the TGI (U251 CNS) was greater than 10 µM. It also gave a TGI (UACC-257 melanoma) greater than 10 µM and a TGI (UACC-62 melanoma) greater than 10 µM.
`COc1cc(C2c3[nH]c4ccccc4c3[C@@H](Nc3ccc(F)cc3)[C@H]3COC(=O)N23)cc(OC)c1O` (stereo partly specified) was tested, and the TGI (A498 renal) was 7.55 µM, the TGI (A549 NSCLC) was 3.31 µM and the TGI (ACHN renal) was 1.34 µM. The TGI (BT-549 breast) was 4.28 µM, the TGI (CAKI-1 renal) was 3.22 µM and the TGI (CCRF-CEM leukemia) was 3.93 µM. For the same compound, the TGI (DU-145 prostate) was 4.07 µM, the TGI (EKVX NSCLC) was greater than 10 µM and the TGI (HCC-2998 colon) was 3.34 µM. It also gave a TGI (HCT-116 colon) greater than 10 µM, a TGI (HCT-15 colon) of 5.35 µM and a TGI (HOP-62 NSCLC) of 3.42 µM. The TGI (HOP-92 NSCLC) was greater than 10 µM, the TGI (HS 578T breast) was 2.11 µM and the TGI (HT29 colon) was greater than 10 µM. It also gave a TGI (IGROV1 ovarian) of 9.24 µM, a TGI (K-562 leukemia) greater than 10 µM and a TGI (KM12 colon) of 6.5 µM. The TGI (LOX IMVI melanoma) was 3.26 µM, the TGI (M14 melanoma) was 9.55 µM and the TGI (MALME-3M melanoma) was 7.28 µM. It also gave a TGI (MCF7 breast) greater than 10 µM, a TGI (MDA-MB-231 breast) greater than 10 µM and a TGI (MDA-MB-435) greater than 10 µM. It also gave a TGI (MDA-N) greater than 10 µM, a TGI (NCI-H226 lung) of 2.9 µM and a TGI (NCI-H23 lung) of 5.18 µM. The TGI (NCI-H460 lung) was 4.74 µM, the TGI (NCI/ADR-RES ovarian) was greater than 10 µM and the TGI (OVCAR-3 ovarian) was 6.09 µM. It also gave a TGI (OVCAR-4 ovarian) greater than 10 µM, a TGI (OVCAR-5 ovarian) of 9.08 µM and a TGI (OVCAR-8 ovarian) greater than 10 µM. The TGI (PC-3 prostate) was greater than 10 µM, the TGI (SF-268 CNS) was 7.01 µM and the TGI (SF-295 CNS) was 3.69 µM. For the same compound, the TGI (SF-539 CNS) was 3.17 µM, the TGI (SK-MEL-28 melanoma) was greater than 10 µM and the TGI (SK-MEL-5 melanoma) was 2.48 µM. The TGI (SK-OV-3 ovarian) was 3.95 µM, the TGI (SN12C renal) was 5.57 µM and the TGI (SNB-19 CNS) was 7.09 µM. For the same compound, the TGI (SNB-75 CNS) was 6.08 µM, the TGI (SW-620 colon) was 5.74 µM and the TGI (T-47D breast) was greater than 10 µM. The TGI (TK-10 renal) was 4.85 µM, the TGI (U251 CNS) was 7.96 µM and the TGI (UACC-257 melanoma) was greater than 10 µM. For the same compound, the TGI (UACC-62 melanoma) was 4.6 µM and the TGI (UO-31 renal) was 2.67 µM.
